# Values joined by “and” are separate entries in the source; they are usually repeats but may differ in a detail not shown here. Equal values may be shown once.
# Tests used:
# [1] = system: N87 (stomach) cancer cells; test: SRB cytotoxicity assay, N87; type: cell-based; conditions: Homo sapiens, 72 h, maximum tested concentration 50 µM, read-out: IC50 ± SEM, N87
# Method: MCF7 (breast) or N87 (stomach) cancer cells were grown in Roswell Park Memorial Institute-1640 (RPMI-1640) medium (Thermo Fisher Scientific, Inc; Waltham, MA, USA), supplemented with 10% heat inactivated fetal bovine serum (FBS), 50 units/mL of penicillin and […] of streptomycin and maintained at 37°C in a humidified atmosphere containing 5% CO2. The cells were maintained as “monolayer culture” by serial subculturing.
# Cytotoxicity was determined using Sulforhodamine B (SRB) method as previously described by Skehan et al. ([66]). Exponentially growing MCF7 and N87 cells were collected using 0.25% Trypsin-EDTA and were then seeded in 96-well plates at a density of 1000-2000 cells/well in 10% FBS and penicillin/streptomycin supplemented RPMI-1640 medium. After 24 h, cells were treated with different concentrations of test compounds and incubated for 72 h at 37°C in a humidified atmosphere containing 5% CO2. Next, the cells were fixed by adding trichloroacetic acid (TCA, 10% final conc. in wells) directly to the wells and incubated for 1 h at 4°C, then cells were washed with distilled water 5 times to remove excess TCA, media, serum proteins, and metabolites, followed by air drying. After that, the fixed cells were stained with 0.4% SRB dissolved in 1% acetic acid for 10 min at room temperature, and excess stain was removed by quickly rinsing with 1% acetic acid. The residual acetic acid was removed completely by air drying the plates for 24 h, and the dye was solubilized with Tris buffer (pH= 7.4, 10 mM) for 5 min on a shaker at 1600 rpm. The optical density (OD) of each well was measured spectrophotometrically at 564 nm with an ELISA microplate reader (ChroMate-4300, FL, USA). The IC50 values (concentration of drug resulting in 50% reduction in cell survival) were calculated according to the equation for Boltzman sigmoidal concentration–response curve using the nonlinear regression fitting models (Graph Pad, Prism Version 5).
# HSP27 = test: Human phosphokinase array, HSP27; type: cell-based
# Description: (§1) The kinome tree representation (Figure 7C), which was generated by raising the Kinase Score cut-off to >1.2, confirmed that, unlike tirbanibulin and our prototype molecule KX1-136, 4e’s effects were more observable on kinases other than the Src family such as the Eph and TEC families. […] Therefore, we screened compound 4e using the Human Phospho-Kinase Array® kit from R&D systems (Minneapolis, MN, USA). In this system, 35 phosphorylated YK and serine-threonine kinase (STK) enzymes in the untreated (control) and treated (test) HL60 cell lysates were captured on nitrocellulose membrane, pre-spotted with phosphokinase-specific capture antibodies, and then visualized by detection antibody cocktails (Figure 8). The difference in the spot intensity between untreated (control) and treated cells is proportional to change in the amount of the phosphorylated protein induced by 4e.
# (§2) The phosphorylation profile of 48 kinases was performed using the Proteome Profiler Human Phospho-Kinase Antibody Array Kit by R&D Systems (Minneapolis, MN, USA) according to the protocol. Briefly, the total cellular protein was extracted using the Lysis buffer and was quantified using Bio-Rad DC Protein Assay kit (Hercules, CA, USA). Nitrocellulose membrane set (A&B), pre-spotted with kinase-specific capture antibodies, were first blocked with Array Buffer-1 at RT for 30 min on a rocking platform shaker. Approximately 600 µg of protein concentrate was diluted in the buffer provided and was added onto the membrane set, and the membranes were incubated overnight at 4°C in an 8-well plate. Subsequently, membranes were washed with Wash Buffer and incubated with appropriate Detection Antibody cocktails for 2 h at RT. Streptavadin-HRP (1:2000) was added onto membranes and incubated for 30 min at RT. Membranes were washed, and Chemiluminescent Detection Reagents 1&2 were applied in equal volumes for detection. The signals were detected on C-DiGit®Blot Scanner (LI-COR, Odyssey Imaging Systems, Lincoln, Nebraska, USA) using Image Studio 5.0 software.
# GSK-3α/β = test: Human phosphokinase array, GSK-3α/β; type: cell-based
# Description: as §1, §2
# Tyk2 = test: PamChip tyrosine kinase microarray, Tyk2; type: biochemical, human; conditions: 4e 0.1 µM, HL60 lysate
# Method: The changes in kinase activities induced by treatment with 4e were monitored within the HL60 cell lines using PamGene’s (Hertogenbosch, Netherlands) PamChip® peptide microarray profiler, which quantifies the activities of 144 tyrosine kinases (YK) ([29], [30]) (Figure 7). Results are provided as a log fold change (LFC) heatmap and Mean Kinase Statistic. From the LFC it is apparent that compound 4e, at a concentration of 0.1 µM, induced sizable changes to the activity of several kinases within the cell signaling YK profile (Figure 7A).
# An Upstream Kinase tool was used to generate a putative list of kinases responsible for phosphorylating the phospho-sites on the PamChip (Figure 7B) ([31]). It is an interpretation and is highly dependent on the contents of the underlying phosphorylation databases. A Kinase Score was used for ranking kinases based on their significance and specificity in terms of the set of peptides used for the corresponding kinase. Kinase Statistics indicates the overall change of the peptide set that represents the kinase. Kinase statistics value <0 indicates lower kinase activity in the compound spiked lysate and vice versa ([32], [33]). Table 5 lists the 20 most changed kinases within treated HL60 cell lysates by 0.1 μM 4e, ranked according to their Kinase Score.
# The compound 4e was spiked into HL60 cell lysate at different concentrations (0.001, 0.01, 0.1, 1, 10 and 50 μM). In addition, DMSO was also spiked in HL60 lysate at low concentration (2% v/v) as control. Samples were profiled on PamGene’s Tyrosine Kinase (PTK) arrays in technical replicates, covering a total of 196 phosphorylation sites. Frozen HL60 cultured cell pellet was sent to PamGene. At PamGene, cells were lysed using a lysis buffer and proteases inhibitors cocktail. Protein concentration was measured using standard Bradford assay as per PamGene SOPs. These lysates were further used for generating the PTK activity profiles. For spiking, 4e was received as powder form and dissolved in DMSO at PamGene facility followed by storing at -20°C in small aliquots. PamGene used its in-house bioinformatics toolbox in combination with other methods to generate hypotheses of signaling pathways.
compound,measurement,setting,value
"O=C(Cc1ccc(NC(=O)c2cccc(Cl)c2)cc1)NCc1ccccc1 [Compound 4e, N-(4-(2-(benzylamino)-2-oxoethyl)phenyl)-3-chlorobenzamide]",IC50,[1],5.28 ± 0.91 µM
same,decrease of Hsp27 Ser78 and Ser82 phosphorylation,"HSP27; HL60, versus control",92.3%
same,"phosphokinase signal after 4e exposure, HSP27","HSP27; HL60 cell lysate, treated",3.71
same,"% Change, HSP27",HSP27; treated vs untreated HL60,-92.31%
same,"Change in Signal, HSP27",HSP27; treated vs untreated HL60,-44.51
same,"phosphokinase signal after 4e exposure, GSK-3α/β","GSK-3α/β; HL60 cell lysate, treated",102.64
same,"Change in Signal, GSK-3α/β",GSK-3α/β; treated vs untreated HL60,22.94
same,"% Change, GSK-3α/β","GSK-3α/β; treated vs untreated HL60, Ser9 phosphorylation",28.78% and 28%
same,Mean Final Score,Tyk2,1.7035
same,Mean Kinase Statistic,Tyk2,-0.6710
same,Mean Significance Score,Tyk2,1.1411
same,Mean Specificity Score,Tyk2,0.5624

# From paper PMC9166630, “SAR Probing of KX2-391 Provided Analogues With Juxtaposed Activity Profile Against Major Oncogenic Kinases” (Frontiers in Oncology, 2022)
